Assay results from patent US8192962B2, “Processes for detecting toxic substances” (Daikin Industries, Ltd., priority 2001, dated 2012).

System: Unknown protein yeast genes
Assay: DNA chip mRNA expression in yeast, unknown protein yeast genes (Table 1)
Assay type: cell-based, Saccharomyces cerevisiae S288C
Outline: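 Measured as treated-to-untreated fluorescence ratio on a full-genome yeast DNA chip. Cells (S288C, YPD, 25° C.) were exposed in log phase for two hours to one chemical, dosed to curb growth without killing.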

Q: What does the source list for `S=C([S-])NCCNC(=S)[S-].[Zn+2]` [(11), zinc N,N′-ethylenebis(dithiocarbamate)]?
A: The level of expressed mRNA in the presence of chemical substance/The level of expressed mRNA in the absence of chemical substance (yeast gene YAL053W, incubated two hours with chemical substance): 2.3; The level of expressed mRNA in the presence of chemical substance/The level of expressed mRNA in the absence of chemical substance (yeast gene YBL048W): 2.0; The level of expressed mRNA in the presence of chemical substance/The level of expressed mRNA in the absence of chemical substance (yeast gene YBL107C): 2.9; The level of expressed mRNA in the presence of chemical substance/The level of expressed mRNA in the absence of chemical substance (yeast gene YDL072C, incubated two hours with chemical substance): 1.4; The level of expressed mRNA in the presence of chemical substance/The level of expressed mRNA in the absence of chemical substance (yeast gene YDL204W, incubated two hours with chemical substance): 3.2; The level of expressed mRNA in the presence of chemical substance/The level of expressed mRNA in the absence of chemical substance (yeast gene YDL222C, incubated two hours with chemical substance): 2.6; The level of expressed mRNA in the presence of chemical substance/The level of expressed mRNA in the absence of chemical substance (yeast gene YDR330W, incubated two hours with chemical substance): 0.9; The level of expressed mRNA in the presence of chemical substance/The level of expressed mRNA in the absence of chemical substance (yeast gene YDR391C, incubated two hours with chemical substance): 1.9; The level of expressed mRNA in the presence of chemical substance/The level of expressed mRNA in the absence of chemical substance (yeast gene YDR411C, incubated two hours with chemical substance): 1.3; The level of expressed mRNA in the presence of chemical substance/The level of expressed mRNA in the absence of chemical substance (yeast gene YDR511W, incubated two hours with chemical substance): 1.2; The level of expressed mRNA in the presence of chemical substance/The level of expressed mRNA in the absence of chemical substance (yeast gene YDR545W, incubated two hours with chemical substance): 0.7; The level of expressed mRNA in the presence of chemical substance/The level of expressed mRNA in the absence of chemical substance (yeast gene YEL001C, incubated two hours with chemical substance): 1.2; The level of expressed mRNA in the presence of chemical substance/The level of expressed mRNA in the absence of chemical substance (yeast gene YER004W, incubated two hours with chemical substance): 2.2; The level of expressed mRNA in the presence of chemical substance/The level of expressed mRNA in the absence of chemical substance (yeast gene YER035W, incubated two hours with chemical substance): 1.4; The level of expressed mRNA in the presence of chemical substance/The level of expressed mRNA in the absence of chemical substance (yeast gene YER079W, incubated two hours with chemical substance): 2.1; The level of expressed mRNA in the presence of chemical substance/The level of expressed mRNA in the absence of chemical substance (yeast gene YER106W, incubated two hours with chemical substance): 1.0; The level of expressed mRNA in the presence of chemical substance/The level of expressed mRNA in the absence of chemical substance (yeast gene YER158C, incubated two hours with chemical substance): 2.3; The level of expressed mRNA in the presence of chemical substance/The level of expressed mRNA in the absence of chemical substance (yeast gene YER163C, incubated two hours with chemical substance): 1.6; The level of expressed mRNA in the presence of chemical substance/The level of expressed mRNA in the absence of chemical substance (yeast gene YER175C, incubated two hours with chemical substance): 1.1; The level of expressed mRNA in the presence of chemical substance/The level of expressed mRNA in the absence of chemical substance (yeast gene YFL006W, incubated two hours with chemical substance): 1.2; The level of expressed mRNA in the presence of chemical substance/The level of expressed mRNA in the absence of chemical substance (yeast gene YFL010C, incubated two hours with chemical substance): 1.4; The level of expressed mRNA in the presence of chemical substance/The level of expressed mRNA in the absence of chemical substance (yeast gene YFL024C): 0.6; The level of expressed mRNA in the presence of chemical substance/The level of expressed mRNA in the absence of chemical substance (yeast gene YFL032W, incubated two hours with chemical substance): 1.1; The level of expressed mRNA in the presence of chemical substance/The level of expressed mRNA in the absence of chemical substance (yeast gene YGL037C, incubated two hours with chemical substance): 3.9; The level of expressed mRNA in the presence of chemical substance/The level of expressed mRNA in the absence of chemical substance (yeast gene YGL047W, incubated two hours with chemical substance): 1.9; The level of expressed mRNA in the presence of chemical substance/The level of expressed mRNA in the absence of chemical substance (yeast gene YGL053W, incubated two hours with chemical substance): 1.3; The level of expressed mRNA in the presence of chemical substance/The level of expressed mRNA in the absence of chemical substance (yeast gene YGL121C): 6.1; The level of expressed mRNA in the presence of chemical substance/The level of expressed mRNA in the absence of chemical substance (yeast gene YGL218W): 0.1; The level of expressed mRNA in the presence of chemical substance/The level of expressed mRNA in the absence of chemical substance (yeast gene YGR101W, incubated two hours with chemical substance): 2.0; The level of expressed mRNA in the presence of chemical substance/The level of expressed mRNA in the absence of chemical substance (yeast gene YGR110W): 0.5; The level of expressed mRNA in the presence of chemical substance/The level of expressed mRNA in the absence of chemical substance (yeast gene YGR130C, incubated two hours with chemical substance): 0.8; The level of expressed mRNA in the presence of chemical substance/The level of expressed mRNA in the absence of chemical substance (yeast gene YGR142W): 2.3; The level of expressed mRNA in the presence of chemical substance/The level of expressed mRNA in the absence of chemical substance (yeast gene YGR154C, incubated two hours with chemical substance): 1.5; The level of expressed mRNA in the presence of chemical substance/The level of expressed mRNA in the absence of chemical substance (yeast gene YGR221C, incubated two hours with chemical substance): 0.5; The level of expressed mRNA in the presence of chemical substance/The level of expressed mRNA in the absence of chemical substance (yeast gene YHR138C, incubated two hours with chemical substance): 1.6; The level of expressed mRNA in the presence of chemical substance/The level of expressed mRNA in the absence of chemical substance (yeast gene YHR199C, incubated two hours with chemical substance): 1.9; The level of expressed mRNA in the presence of chemical substance/The level of expressed mRNA in the absence of chemical substance (yeast gene YIL023C, incubated two hours with chemical substance): 1.1; The level of expressed mRNA in the presence of chemical substance/The level of expressed mRNA in the absence of chemical substance (yeast gene YIL041W, incubated two hours with chemical substance): 1.4; The level of expressed mRNA in the presence of chemical substance/The level of expressed mRNA in the absence of chemical substance (yeast gene YIL087C, incubated two hours with chemical substance): 2.8; The level of expressed mRNA in the presence of chemical substance/The level of expressed mRNA in the absence of chemical substance (yeast gene YIL089W): 0.7; The level of expressed mRNA in the presence of chemical substance/The level of expressed mRNA in the absence of chemical substance (yeast gene YJL057C, incubated two hours with chemical substance): 2.0; The level of expressed mRNA in the presence of chemical substance/The level of expressed mRNA in the absence of chemical substance (yeast gene YJL066C, incubated two hours with chemical substance): 0.8; The level of expressed mRNA in the presence of chemical substance/The level of expressed mRNA in the absence of chemical substance (yeast gene YJL082W, incubated two hours with chemical substance): 1.0; The level of expressed mRNA in the presence of chemical substance/The level of expressed mRNA in the absence of chemical substance (yeast gene YJL151C, incubated two hours with chemical substance): 1.0; The level of expressed mRNA in the presence of chemical substance/The level of expressed mRNA in the absence of chemical substance (yeast gene YJL152W, incubated two hours with chemical substance): 1.0; The level of expressed mRNA in the presence of chemical substance/The level of expressed mRNA in the absence of chemical substance (yeast gene YJL161W, incubated two hours with chemical substance): 3.7; The level of expressed mRNA in the presence of chemical substance/The level of expressed mRNA in the absence of chemical substance (yeast gene YJL171C, incubated two hours with chemical substance): 2.2; The level of expressed mRNA in the presence of chemical substance/The level of expressed mRNA in the absence of chemical substance (yeast gene YJR008W, incubated two hours with chemical substance): 1.4; The level of expressed mRNA in the presence of chemical substance/The level of expressed mRNA in the absence of chemical substance (yeast gene YJR054W, incubated two hours with chemical substance): 0.7; The level of expressed mRNA in the presence of chemical substance/The level of expressed mRNA in the absence of chemical substance (yeast gene YKL071W): 40.3; The level of expressed mRNA in the presence of chemical substance/The level of expressed mRNA in the absence of chemical substance (yeast gene YKL086W, incubated two hours with chemical substance): 0.7; The level of expressed mRNA in the presence of chemical substance/The level of expressed mRNA in the absence of chemical substance (yeast gene YKL151C, incubated two hours with chemical substance): 2.3
